Test results published in article PMC12376128, “In vitro and In Vivo Drug Metabolism Analysis of BPI-460372 - A Covalent TEAD1/3/4 Inhibitor” (Current Drug Metabolism, 2025).

Tests used:
CYP3A4 = test: Metabolic stability in HLMs with or without specific CYP inhibitor (ketoconazole); format: in vitro ADME, human; conditions: HLMs 1 mg protein/mL, substrate 1 μM, ketoconazole 20 µM
Protocol: Before starting the experiments, the HLMs were thawed gently on ice. Metabolic stability incubations were performed at 37 °C. The incubations contained 100 mM phosphate buffer saline (PBS, pH 7.4), HLMs (1 mg protein·mL^-1), dimethyl sulfoxide (DMSO, blank control) or a selective CYP inhibitor, and BPI-460372 or positive control substrates (final incubation concentration, 1 μM). The incubation process started with the addition of NADPH (1 mM final concentration) after a 5-minute preincubation period. The chemical inhibitors were as follows: a-naphthoflavone (2 µM) for CYP1A2, ticlopidine (20 µM) for 2B6, quercetin (20 µM) for CYP2C8, sulfaphenazole (20 µM) for CYP2C9, ticlopidine (200 µM) for CYP2C19, quinidine (20 µM) for CYP2D6, and ketoconazole (20 µM) for CYP3A [9]. Aliquots were maintained in acetonitrile containing internal standard (IS) at various time points, such as 0 min, 5 min, 10 min, 20 min, 30 min, and 60 min. All incubations were performed in triplicate, and the concentration in the supernatant was determined by liquid chromatography-tandem mass spectrometry (LC-MS/MS).
The elimination rate constant k (min^-1) was obtained by linear regression from the natural logarithm of the […] of the parent drug and the incubation time. The inhibition rate was calculated using equation 1 [10]: […]

recombinant human CYP2C8 = molecular target: T1, recombinant human CYP2C8 (Homo sapiens, UniProt P10632); test: Metabolic stability in recombinant human CYP isoenzymes; format: in vitro ADME; conditions: rCYP2C8 100 pmol P450/mL, 1 µM
T1 construct: purchased Cypex Ltd. (Dundee, UK)
T1 sequence (P10632 1-490): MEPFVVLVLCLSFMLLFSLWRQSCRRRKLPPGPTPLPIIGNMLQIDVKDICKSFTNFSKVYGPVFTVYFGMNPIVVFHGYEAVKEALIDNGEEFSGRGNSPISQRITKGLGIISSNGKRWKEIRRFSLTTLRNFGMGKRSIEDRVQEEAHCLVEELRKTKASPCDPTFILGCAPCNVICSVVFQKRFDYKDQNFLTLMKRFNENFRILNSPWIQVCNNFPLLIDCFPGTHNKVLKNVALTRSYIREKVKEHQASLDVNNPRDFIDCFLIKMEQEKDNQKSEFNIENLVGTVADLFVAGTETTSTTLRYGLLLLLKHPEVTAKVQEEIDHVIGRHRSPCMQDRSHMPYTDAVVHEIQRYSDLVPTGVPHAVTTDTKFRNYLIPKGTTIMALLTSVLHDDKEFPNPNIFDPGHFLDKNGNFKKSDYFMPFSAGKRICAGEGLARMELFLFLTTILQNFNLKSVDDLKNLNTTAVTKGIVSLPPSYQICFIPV
Protocol: (§1) To identify the specific isoform that participates in the metabolism of BPI-460372, 1 µM BPI-460372 or positive control substrates were mixed with recombinant human CYP1A2, 2B6, 2C8, 2C9, 2C19, 2D6 or 3A4 (100 pmol P450·mL^-1), and the reaction was started by the addition of NADPH (1 mM final concentration) after 5-minute preincubation at 37°C. Aliquots were maintained in acetonitrile containing IS at different time points at 0 min, 5 min, 10 min, 20 min, 30 min, and 60 min. All incubations were performed in triplicate, and the concentration of the supernatant was determined by LC-MS/MS.
(§2) A substrate depletion approach was employed to determine the intrinsic clearance (CLint (rCYPj)) for each isoform. The contribution of each isoform was estimated using equations 2 and 3. CYPj abundance was evaluated as the abundance (CYPj) of each isoform in HLMs (pmol/mg protein).

recombinant human CYP3A4 = molecular target: T2, recombinant human CYP3A4 (Homo sapiens, UniProt P08684); test: as above; format: in vitro ADME; conditions: rCYP3A4 100 pmol P450/mL, 1 µM
T2 construct: purchased Cypex Ltd. (Dundee, UK)
Protocol: as §1, §2

mouse hepatocytes = test: Metabolism and metabolite formation in hepatocytes; format: in vitro ADME, ICR mouse; conditions: ICR mouse hepatocytes, 10 µM BPI-460372, 4 h incubation
Source text: All the samples were duplicates.

4-week toxicity study = format: in vivo; conditions: rats
CYP1A2 = molecular target: T3, CYP1A2 (Homo sapiens, UniProt P05177); test: Metabolic stability in recombinant human CYP isoenzymes; format: in vitro ADME; design: purchased Cypex Ltd. (Dundee, UK); conditions: rCYP1A2 100 pmol P450/mL, 1 µM
T3 sequence (P05177 1-516): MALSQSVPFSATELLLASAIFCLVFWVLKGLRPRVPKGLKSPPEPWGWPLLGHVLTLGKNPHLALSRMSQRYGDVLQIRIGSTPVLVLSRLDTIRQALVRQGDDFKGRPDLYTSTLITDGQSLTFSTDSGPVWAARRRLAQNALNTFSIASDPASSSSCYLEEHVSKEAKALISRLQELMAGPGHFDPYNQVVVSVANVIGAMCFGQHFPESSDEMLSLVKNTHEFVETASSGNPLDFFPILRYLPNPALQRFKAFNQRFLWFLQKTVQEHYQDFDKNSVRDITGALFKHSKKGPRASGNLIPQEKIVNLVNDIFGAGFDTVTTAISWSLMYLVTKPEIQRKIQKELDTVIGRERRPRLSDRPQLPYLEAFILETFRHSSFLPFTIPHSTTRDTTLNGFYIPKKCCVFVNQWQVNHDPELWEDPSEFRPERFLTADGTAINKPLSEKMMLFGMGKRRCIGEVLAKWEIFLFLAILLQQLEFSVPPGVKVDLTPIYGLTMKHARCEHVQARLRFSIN
Protocol: as §1, §2

CYP2C9 = CYP2C9 (Homo sapiens, UniProt P11712); test: as above; format: in vitro ADME; design: purchased Cypex Ltd. (Dundee, UK); conditions: rCYP2C9 100 pmol P450/mL, 1 µM
Protocol: as §1, §2

CYP2D6 = CYP2D6 (Homo sapiens, UniProt P10635); test: as above; format: in vitro ADME; design: purchased Cypex Ltd. (Dundee, UK); conditions: rCYP2D6 100 pmol P450/mL, 1 µM
Protocol: as §1, §2

CYP2D6, sequence (P10635 whole entry): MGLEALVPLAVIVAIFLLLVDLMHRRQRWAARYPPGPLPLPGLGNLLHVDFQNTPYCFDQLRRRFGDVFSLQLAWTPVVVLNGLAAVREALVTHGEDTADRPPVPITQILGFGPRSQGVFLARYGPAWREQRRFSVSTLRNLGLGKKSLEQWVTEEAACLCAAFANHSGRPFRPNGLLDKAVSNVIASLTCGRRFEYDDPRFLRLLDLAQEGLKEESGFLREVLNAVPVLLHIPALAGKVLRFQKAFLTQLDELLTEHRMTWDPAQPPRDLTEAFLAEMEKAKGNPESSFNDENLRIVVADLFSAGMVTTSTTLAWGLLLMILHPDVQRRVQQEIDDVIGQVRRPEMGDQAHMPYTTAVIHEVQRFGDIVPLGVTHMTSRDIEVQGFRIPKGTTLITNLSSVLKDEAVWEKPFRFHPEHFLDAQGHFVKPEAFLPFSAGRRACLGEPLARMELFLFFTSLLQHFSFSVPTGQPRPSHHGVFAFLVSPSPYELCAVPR
T2 sequence (P08684 whole entry): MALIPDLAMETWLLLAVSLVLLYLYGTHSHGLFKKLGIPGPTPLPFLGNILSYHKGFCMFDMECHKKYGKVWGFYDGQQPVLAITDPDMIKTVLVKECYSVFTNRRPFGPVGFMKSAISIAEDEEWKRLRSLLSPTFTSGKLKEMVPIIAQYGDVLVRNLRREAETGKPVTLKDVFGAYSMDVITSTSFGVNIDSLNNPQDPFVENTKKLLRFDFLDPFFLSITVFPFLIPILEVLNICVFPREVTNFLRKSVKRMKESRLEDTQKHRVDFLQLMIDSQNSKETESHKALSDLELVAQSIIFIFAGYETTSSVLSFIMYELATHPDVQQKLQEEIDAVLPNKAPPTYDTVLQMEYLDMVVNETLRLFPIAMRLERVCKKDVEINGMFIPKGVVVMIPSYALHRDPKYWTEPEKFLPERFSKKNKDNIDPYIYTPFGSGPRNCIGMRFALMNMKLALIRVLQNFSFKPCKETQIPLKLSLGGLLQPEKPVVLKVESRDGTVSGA
CYP2C9, sequence (P11712 whole entry): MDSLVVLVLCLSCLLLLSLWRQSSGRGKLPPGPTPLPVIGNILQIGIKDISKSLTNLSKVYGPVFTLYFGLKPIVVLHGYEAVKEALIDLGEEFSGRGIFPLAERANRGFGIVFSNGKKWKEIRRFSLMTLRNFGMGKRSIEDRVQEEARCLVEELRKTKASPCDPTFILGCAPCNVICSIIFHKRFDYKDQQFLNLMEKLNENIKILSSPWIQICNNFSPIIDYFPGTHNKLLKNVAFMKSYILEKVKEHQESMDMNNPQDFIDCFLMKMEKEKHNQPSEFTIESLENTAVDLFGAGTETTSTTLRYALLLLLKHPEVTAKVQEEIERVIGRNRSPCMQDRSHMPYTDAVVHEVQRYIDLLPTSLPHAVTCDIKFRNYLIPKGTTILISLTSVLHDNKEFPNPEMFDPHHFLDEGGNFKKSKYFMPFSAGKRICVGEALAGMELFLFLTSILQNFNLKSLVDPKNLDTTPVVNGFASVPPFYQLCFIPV

In the case of C=C(F)C(=O)N1CC(n2c(=O)n(-c3ccc(C(F)(F)F)cc3)c3nccnc32)C1 [BPI-460372], the “Inhibition Rate” value (CYP3A4) is reported as 9.1%, the Contribution (recombinant human CYP2C8) is reported as 8.8% and the Contribution (recombinant human CYP3A4) is reported as 28.3%. For the same compound, the “UV (314 nm) Peak Areas Relative Abundance” value (mouse hepatocytes) was 32.74%, the Main target organs (4-week toxicity study) was “kidney” and the Contribution (CYP1A2) was 13.1%. It also gave a Contribution (CYP2C9) of 6.3% and a Contribution (CYP2D6) of 43.6%.
